Where two headings read alike, the source gives them in different places.
Assays:
[1] = target: T1, Biotinylated human CD80 (hCD80-BT) (Homo sapiens, UniProt P33681); assay: BIAcore biomolecular interaction analysis, binding to immobilised hCD80-BT; set-up: off-rate on CD80: unit not given here; conditions: BIAcore S51, immobilised hCD80-BT
T1 construct: biotin (biotinylated)
T1 sequence (P33681 35-242 limits assumed): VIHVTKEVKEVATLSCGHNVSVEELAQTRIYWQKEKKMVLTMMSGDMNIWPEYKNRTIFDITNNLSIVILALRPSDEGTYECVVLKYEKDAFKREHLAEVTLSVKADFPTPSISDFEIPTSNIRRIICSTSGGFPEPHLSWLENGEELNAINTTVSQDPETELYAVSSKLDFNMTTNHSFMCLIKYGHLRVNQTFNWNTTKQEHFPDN
Text: The Use of BIAcore Biomolecular Interaction Analysis
Biotinylated human CD80 (hCD80-BT) is a recombinant soluble form of a membrane bound receptor molecule (CD80) which binds to CD28 to initiate T cell activation. The interaction between CD80 and CD28 has been extensively investigated (Collins et al, 2002). Biotinlyated human HLA-A2-tax is the recombinant soluble form of a membrane bound receptor molecule that has been used in this example as a control protein, and is not expected to interact with the compounds.
The BIAcore S51™ system was used for screening the compounds of Examples 1-4 above. A series S sensor chip CM5 was docked onto the BIAcore S51™. Streptavidin was coupled to the carboxymethyl surface using standard amine coupling. The chip surface was activated with 0.2M EDC/0.05M NHS, followed by binding of streptavidin (0.25 mg/ml in 10 mM sodium acetate pH 5.0) and saturation of unoccupied sites with […].
The BIAcore S51 sensor chip has two separate sensor spots for immobilisation of proteins. hCD80-BT was immobilised on the streptavidin-coated surface of one sensor spot until a response of approximately 3000 RU was observed. A protein to control for non-specific binding of the compound was immobilised on a second sensor spot. The control protein used for these experiments was a biotinylated, soluble form of the human HLA protein.
Dilution series of compounds (1000 nM-0.05 nM) were prepared in running buffer (10 mM, pH 7.4, 150 mM NaCl, 0.005% P20; 5% DMSO).
BIAcore S51™ was run at a flow rate of 30 μl/min using running buffer. Compounds and DMSO standard solutions for correction of data for solvent effects were injected. Data were recorded automatically and were analysed using BIAcore S51 Evaluation software.

[2] = target: T2, CD80-CD28 interaction (Homo sapiens, UniProt P33681); assay: Homogenous Time Resolved Fluorescence (HTRF) assay, cell free; assay type: binding; conditions: 4 hours at room temperature
T2 sequence (P33681 35-242 limits assumed): T1 sequence (P33681 35-242 limits assumed)
Summary of the method: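 In pH7.8 Tris-HCl/NaCl buffer with 0.1% BSA, a 100 μM-1.7 nM compound series was incubated for 4 h at room temperature with CD28 and CD80 fusions carrying europium and APC via linker antibodies. Time-resolved signals at 665 and 615 nm were read after 340 nm excitation; a C215 Fab swap defined background. EC50 given as banded classes.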

[3] = test system: production of Interleukin-2 (IL-2) by Human Jurkat T Cells; assay: Inhibition of production of interleukin-2 (IL-2) by human Jurkat T cells (Raji/Jurkat co-culture, anti-CD3, IL-2 ELISA); assay type: cell-based; conditions: read-out: Percentage Inhibition (relative to DMSO = 0%); for inhibition at 30 µM: Compound Concentration 30 μM; for inhibition at 10 µM: Compound Concentration 10 μM
Method: • Collins A V et al. (2002) Immunity 17, 201-210 “The interaction properties of costimulatory molecules revisited” Inhibition of Production of Interleukin-2 (IL-2) by Human Jurkat T Cells. Method
Human Raji cells were dispensed at a concentration of 2×10^5 cells per well in RPMI-1640 medium supplemented with 10% fetal calf serum, 1% penicillin/streptomycin, 1% glutamine (RPMI medium) in a 96-well round bottom microtitre plate. Compounds under investigation (dissolved in 100% DMSO) were diluted to eight-fold the desired final concentration in RPMI medium and added to the required final concentration for a total volume of 200 μl per well. After 20 minutes incubation at 37° C., Jurkat T cells were added at a concentration of 2×10^5 cells per well. Monoclonal antibody to CD3 (UCHT1, R&D Systems) was added to the cultures at a final concentration of 1 μg per ml, and where indicated, monoclonal antibody to CD28 (CD28.2, BD-Pharmingen) was also added at a concentration of 2.5 μg per ml. Cells were cultured at 37° C. for 5 hours, after which the plates were centrifuged and the supernatants harvested for IL-2 ELISA assay using the IL-2 Eli-pair kit (DIACLONE Research, Besancon, France) according to the manufacturers instructions.

[4] = inhibition of the CD80-CD28 interaction, read-out: EC50 activity in the HTRF assay
[5] = cell-free HTRF, compound concentration series 100 μM-1.7 nM, read-out: Activity (EC50 in the HTRF assay)
[6] = cell free HTRF assay, concentration series 100 μM-1.7 nM, read-out: Activity (EC50 in the HTRF assay)
[7] = cell-free HTRF, concentration series 100 μM-1.7 nM, read-out: Activity (EC50 in the HTRF assay)

SMILES | EC50 [2, 7] | inhibition at 10 µM [3] | also measured
O=C(NCc1ccccc1)c1ccc(-n2[nH]c3c(nnc4ccccc43)c2=O)cc1 [Example 3, N-benzyl-4-(3-oxo-1,3-dihydro-2H-pyrazolo[4,3-c]cinnolin-2-yl)benzamide] | – | – | Kd [1]: < 100 nM; off-rate on CD80 [1]: 2×10^−2; EC50 [2, 4]: < 1000 nM
O=C(NCCCNC1CCCCC1)c1ccc(-n2[nH]c3c(nnc4ccccc43)c2=O)cc1 [Example 4, N-[(cyclohexylamino)propyl]-4-(3-oxo-1,3-dihydro-2H-pyrazolo[4,3-c]cinnolin-2-yl)benzamide] | – | – | Kd [1]: < 100 nM; off-rate on CD80 [1]: 2×10^−2; EC50 [2, 4]: < 1000 nM
O=C(NCCCCN1CCCC1)c1ccc(-n2[nH]c3c(nnc4c(F)cccc43)c2=O)cc1 [Example 6, 4-(6-fluoro-3-oxo-1,3-dihydro-2H-pyrazolo[4,3-c]cinnolin-2-yl)-N-(pyrrolidin-1-yl-butyl)benzamide] | – | – | Kd [1]: < 100 nM; off-rate on CD80 [1]: 2×10^−2; EC50 [2, 4]: < 1000 nM
CC(C)OCCCNC(=O)c1ccc(-n2[nH]c3c(nnc4ccccc43)c2=O)cc1 [Example 53] | – | – | inhibition at 30 µM [3]: 63.8%; EC50 [2, 5]: < 1000 nM
CN1C(C)(C)CC(NC(=O)c2ccc(-n3[nH]c4c(nnc5ccccc54)c3=O)cc2)CC1(C)C [Example 68] | – | 71.7% | EC50 [2, 5]: < 1000 nM
CCN1CCCC1CNC(=O)Nc1ccc(-n2[nH]c3c(nnc4ccccc43)c2=O)cc1 (stereo not shown) [Example 162] | – | – | inhibition at 30 µM [3]: 54.4%; EC50 [2, 5]: < 1000 nM
O=C(NCCCNC1CCCCC1)c1ccc(-n2[nH]c3c(nnc4c(F)cccc43)c2=O)cc1 [Example 235] | – | 59.3% | EC50 [2, 6]: < 1000 nM
CN1CCC(NC(=O)c2ccc(-n3[nH]c4c(nnc5c(F)cccc54)c3=O)cc2)CC1 [Example 349] | – | 79.5% | EC50 [2, 6]: < 1000 nM
O=C(NCCCN1CCOCC1)c1ccc(-n2[nH]c3c(nnc4c(F)cccc43)c2=O)cc1 [Example 350] | – | 74.2% | EC50 [2, 6]: < 1000 nM
O=C(NC1CN2CCC1CC2)c1ccc(-n2[nH]c3c(nnc4c(F)cccc43)c2=O)cc1 (stereo not shown) [Example 353] | – | 77.4% | EC50 [2, 6]: < 1000 nM
O=C(NCC(F)F)c1ccc(-n2[nH]c3c(nnc4c(F)cccc43)c2=O)cc1 [Example 376] | – | 56.7% | EC50 [2, 6]: < 1000 nM
O=C(NCCCNC1CCCCC1)c1ccc(-n2[nH]c3c(nnc4c(F)ccc(F)c43)c2=O)cc1 [Example 429] | – | 58.8% | EC50 [2, 6]: < 1000 nM
CCCNCCCNC(=O)c1ccc(-n2[nH]c3c(nnc4c(F)cccc43)c2=O)cc1 [Example 442] | < 1000 nM | 58.9% | –
CCN1CCC(NC(=O)c2ccc(-n3[nH]c4c(nnc5c(F)cccc54)c3=O)cc2)CC1 [Example 453] | < 1000 nM | 55.7% | –
CN(C)C1CCC(NC(=O)c2ccc(-n3[nH]c4c(nnc5c(F)cccc54)c3=O)cc2)CC1 (stereo not shown) [Example 472] | < 1000 nM | 58.4% | –
CN(CCCCNC(=O)c1ccc(-n2[nH]c3c(nnc4c(F)cccc43)c2=O)cc1)C(C)(C)C [Example 478] | < 1000 nM | 56% | –
N#CCNC(=O)c1ccc(-n2[nH]c3c(nnc4c(F)cccc43)c2=O)cc1 [Example 482] | < 1000 nM | 39.2% | –
O=C(NC1CCC(=C(F)F)CC1)c1ccc(-n2[nH]c3c(nnc4c(F)cccc43)c2=O)cc1 (stereo not shown) [Example 492] | < 1000 nM | – | –
CC(F)CCNC(=O)c1ccc(-n2[nH]c3c(nnc4c(F)cccc43)c2=O)cc1 (stereo not shown) [Example 493] | < 1000 nM | – | –
CC(C)C(C)(C#N)NC(=O)c1ccc(-n2[nH]c3c(nnc4c(F)cccc43)c2=O)cc1 (stereo not shown) [Example 498] | < 1000 nM | – | –
NC1CCCC(NC(=O)c2ccc(-n3[nH]c4c(nnc5c(F)cccc54)c3=O)cc2)C1 (stereo not shown) [Example 499] | < 1000 nM | – | –
O=C(NCC(F)F)c1ccc(-n2[nH]c3c(nnc4c(F)ccc(F)c43)c2=O)cc1 [Example 500] | < 1000 nM | – | –
O=C(N[C@H]1CC[C@H](O)CC1)c1ccc(-n2[nH]c3c(nnc4c(F)cccc43)c2=O)cc1 [Example 501] | < 1000 nM | – | –
CC(O)CCNC(=O)c1ccc(-n2[nH]c3c(nnc4c(F)cccc43)c2=O)cc1 (stereo not shown) [Example 502] | < 1000 nM | – | –

Further lines, with some results ahead:

EC50 [2, 7] | SMILES | inhibition at 10 µM [3] | also measured
1000 to 10000 nM | O=C(NCC1CCCCCC1O)c1ccc(-n2[nH]c3c(nnc4c(F)cccc43)c2=O)cc1 (stereo not shown) [Example 503] | – | –
1000 to 10000 nM | O=C(NCC1CCCCC1O)c1ccc(-n2[nH]c3c(nnc4c(F)cccc43)c2=O)cc1 (stereo not shown) [Example 504] | – | –
< 1000 nM | O=C(NCCNCCO)c1ccc(-n2[nH]c3c(nnc4c(F)cccc43)c2=O)cc1 [Example 505] | – | –
1000 to 10000 nM | O=C(NCC1CCCCCCC1O)c1ccc(-n2[nH]c3c(nnc4c(F)cccc43)c2=O)cc1 (stereo not shown) [Example 506] | – | –
< 1000 nM | O=C(NC(CO)CO)c1ccc(-n2[nH]c3c(nnc4c(F)cccc43)c2=O)cc1 [Example 507] | – | –
< 1000 nM | CC(CO)NC(=O)c1ccc(-n2[nH]c3c(nnc4c(F)cccc43)c2=O)cc1 (stereo not shown) [Example 508] | – | –
< 1000 nM | CCC(CO)NC(=O)c1ccc(-n2[nH]c3c(nnc4c(F)cccc43)c2=O)cc1 (stereo not shown) [Example 509] | – | –
1000 to 10000 nM | O=C(N[C@H]1c2ccccc2C[C@H]1O)c1ccc(-n2[nH]c3c(nnc4c(F)cccc43)c2=O)cc1 [Example 510] | – | –
1000 to 10000 nM | O=C(NC(CO)Cc1ccc(O)cc1)c1ccc(-n2[nH]c3c(nnc4c(F)cccc43)c2=O)cc1 (stereo not shown) [Example 511] | – | –
1000 to 10000 nM | O=C(N[C@@H](CO)[C@@H](O)c1ccccc1)c1ccc(-n2[nH]c3c(nnc4c(F)cccc43)c2=O)cc1 [Example 513] | – | –
< 1000 nM | O=C(NC(CO)Cc1ccccc1)c1ccc(-n2[nH]c3c(nnc4c(F)cccc43)c2=O)cc1 (stereo not shown) [Example 514] | – | –
1000 to 10000 nM | O=C(NC(CO)Cc1c[nH]c2ccccc12)c1ccc(-n2[nH]c3c(nnc4c(F)cccc43)c2=O)cc1 (stereo not shown) [Example 515] | – | –
> 10000 nM | CC(C)(CO)NC(=O)c1ccc(-n2[nH]c3c(nnc4c(F)cccc43)c2=O)cc1 [Example 516] | – | –
< 1000 nM | CC(CO)(CO)NC(=O)c1ccc(-n2[nH]c3c(nnc4c(F)cccc43)c2=O)cc1 [Example 517] | – | –

Reference: patent publication US8309552B2, “Immunomodulating heterocyclic compounds” (Medigene AG, priority 2003, dated 2012)
